The source of these data is patent US20170066717A1, “NEW PHENYLAZETIDINECARBOXYLATE OR -CARBOXAMIDE COMPOUNDS” (INVENTIVA, priority 2014, published 2017).

One may read the Emax as the greatest response seen or fitted, relative to the assay's reference. The EC50 is the concentration at which the effect is half-maximal.

Molecules are shown by their SMILES.

Assay [1] has as its target T1, NURR-1/RXRα (Homo sapiens, UniProt P19793).
T1 construct: expressed in transfected cells; host or cells: Cos-7 cells
Description: Transactivation test, NURR-1-Gal4/RXRα, luciferase reporter in Cos-7 cells. The class given is cell-based. The note with it: for Emax: COS-7, induction level relative to reference XCT0135908 at 2×10^−5 M (=100%), read-out: hNurr1_RXRaFL Emax (%); for EC50: Cos-7 cells, NURR-1-Gal4/RXRα, luciferase reporter, read-out: hNurr1_RXRaFL EC50. The protocol:
(§1) The ability of the compounds according to the invention to behave as an activator of the heterodimers formed by the NURR-1 nuclear receptor and the RXR nuclear receptors was measured by means of an in vitro test. A transactivation test was used as primary selection (screening) test. Cos-7 cells were cotransfected with a plasmid expressing a chimera of the human NURR-1-Gal4 receptor, a plasmid expressing the human RXR receptor (RXRα or RXRγ receptor) and a 5Gal4pGL3-TK-Luc reporter plasmid. The transfctions were carried out using a chemical agent (Jet PEI). The transfected cells were distributed into 384-well plates and left to stand for 21 hours. At time 24 hours the culture medium was changed. The test products were added (final concentration of between 10^''4 and 3×10^-10 M) to the culture medium. After incubation overnight, the lucifeiase expression was measured after addition of SteadyGlo according to the instructions of the manufacturer (Promega). […] The induction levels (Emax) were calculated relative to the basal activity of each heterodimer.
(A reporter such as luciferase makes a cellular process visible.)

The target in assay [2] is T2, NURR-1/RXRγ (Homo sapiens, UniProt P48443).
T2 construct: expressed in transfected cells; host or cells: Cos-7 cells
T2 sequence (P48443 whole entry): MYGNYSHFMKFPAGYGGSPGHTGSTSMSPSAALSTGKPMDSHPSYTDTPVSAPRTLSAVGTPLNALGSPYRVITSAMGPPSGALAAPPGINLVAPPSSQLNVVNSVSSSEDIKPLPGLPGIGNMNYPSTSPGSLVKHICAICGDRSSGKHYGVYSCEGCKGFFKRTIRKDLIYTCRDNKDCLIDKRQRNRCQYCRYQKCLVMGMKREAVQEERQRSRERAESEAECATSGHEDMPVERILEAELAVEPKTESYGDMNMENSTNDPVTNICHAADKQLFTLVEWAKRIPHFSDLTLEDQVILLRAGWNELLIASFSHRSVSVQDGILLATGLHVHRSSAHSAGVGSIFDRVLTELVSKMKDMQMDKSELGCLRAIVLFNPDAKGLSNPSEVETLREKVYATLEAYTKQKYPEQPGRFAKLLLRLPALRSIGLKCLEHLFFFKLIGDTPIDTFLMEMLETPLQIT
T2 sequence (P43354 whole entry partner): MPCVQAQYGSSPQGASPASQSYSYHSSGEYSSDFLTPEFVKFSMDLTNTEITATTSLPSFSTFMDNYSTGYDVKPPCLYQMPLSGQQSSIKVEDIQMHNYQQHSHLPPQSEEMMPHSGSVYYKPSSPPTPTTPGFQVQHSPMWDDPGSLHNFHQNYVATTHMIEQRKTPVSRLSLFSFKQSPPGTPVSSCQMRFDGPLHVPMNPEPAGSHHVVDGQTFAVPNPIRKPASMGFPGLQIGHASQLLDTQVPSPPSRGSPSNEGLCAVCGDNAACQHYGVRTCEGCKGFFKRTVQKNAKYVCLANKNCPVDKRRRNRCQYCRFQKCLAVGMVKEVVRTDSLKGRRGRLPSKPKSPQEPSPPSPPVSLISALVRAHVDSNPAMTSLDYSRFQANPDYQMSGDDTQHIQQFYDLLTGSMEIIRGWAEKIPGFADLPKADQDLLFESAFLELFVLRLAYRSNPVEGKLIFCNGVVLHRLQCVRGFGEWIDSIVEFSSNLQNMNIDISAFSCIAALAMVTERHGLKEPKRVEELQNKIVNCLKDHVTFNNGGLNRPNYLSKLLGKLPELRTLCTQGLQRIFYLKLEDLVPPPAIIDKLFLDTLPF
T2 sequence (P04386 1-147 partner limits assumed): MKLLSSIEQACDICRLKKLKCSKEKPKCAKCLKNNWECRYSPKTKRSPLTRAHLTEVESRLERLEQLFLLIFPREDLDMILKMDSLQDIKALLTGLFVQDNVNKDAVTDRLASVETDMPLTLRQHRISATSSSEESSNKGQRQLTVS
Description: Transactivation test, NURR-1-Gal4/RXRγ, luciferase reporter in Cos-7 cells. The class given is cell-based. As to conditions: for Emax: COS-7, induction level relative to reference XCT0135908 at 2×10^−5 M (=100%), read-out: hNurr1_RXRgFL Emax (%); for EC50: Cos-7 cells, NURR-1-Gal4/RXRγ, luciferase reporter, read-out: hNurr1_RXRgFL EC50. As to the method:
as §1

T1 sequence (P19793 whole entry): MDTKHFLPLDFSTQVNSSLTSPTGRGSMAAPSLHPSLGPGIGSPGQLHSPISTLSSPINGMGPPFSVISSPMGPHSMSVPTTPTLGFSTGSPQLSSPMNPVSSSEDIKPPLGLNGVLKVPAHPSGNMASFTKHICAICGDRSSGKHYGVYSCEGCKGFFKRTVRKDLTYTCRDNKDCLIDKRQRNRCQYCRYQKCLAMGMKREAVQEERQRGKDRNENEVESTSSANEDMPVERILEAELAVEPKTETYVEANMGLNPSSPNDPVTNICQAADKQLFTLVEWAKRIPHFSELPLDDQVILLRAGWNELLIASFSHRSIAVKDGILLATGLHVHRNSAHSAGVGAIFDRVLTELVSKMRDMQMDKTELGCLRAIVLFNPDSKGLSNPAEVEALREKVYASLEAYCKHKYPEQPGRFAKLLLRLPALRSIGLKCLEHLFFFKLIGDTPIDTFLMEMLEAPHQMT
T1 sequence (P43354 whole entry partner): as the sequence (P43354 whole entry partner) above
T1 sequence (P04386 1-147 partner limits assumed): as the sequence (P04386 1-147 partner limits assumed) above

On to `Cc1cc(-c2cccc(C(F)(F)F)c2F)cc(N2CC(C(=O)O)C2)c1` [Example 23, 1-[3-[2-fluoro-3-(trifluoromethyl)phenyl]-5-methylphenyl]azetidine-3-carboxylic acid], for which the Emax in assay [1] came out at 111%; in assay [2], 107%. For the same compound, the EC50 in assay [1] is 0.013 µM; in assay [2], 0.03 µM.
Regarding `Cc1cc(-c2cc(C(F)(F)F)ccc2Cl)cc(N2CC(C(=O)O)C2)c1` [Example 24, 1-[3-[2-chloro-5-(trifluoromethyl)phenyl]-5-methylphenyl]azetidine-3-carboxylic acid], in assay [1], the Emax amounted to 114% and the EC50 is 0.003 µM. Moreover, in assay [2], the Emax came out at 104% and the EC50 came out at 0.013 µM.
In the case of `Cc1cc(-c2cccc3c2OC(F)(F)O3)cc(N2CC(C(=O)O)C2)c1` [Example 25, 1-[3-(2,2-difluoro-1,3-benzodioxal-4-yl)-5-methylphenyl]azetidine-3-carboxylic acid], in assay [1], the Emax was 99% and the EC50 is 0.019 µM. Moreover, in assay [2], the Emax stood at 109% and the EC50 is 0.05 µM.
On to `Cc1cc(-c2cccc(N(C)C)c2)cc(N2CC(C(=O)O)C2)c1` [Example 26, 1-[3-[3-(dimethylamino)phenyl]-5-methylphenyl]azetidine-3-carboxylic acid], for which, in assay [1], the Emax is 108% and the EC50 was 0.124 µM. Also, in assay [2], the Emax was 116% and the EC50 came to 0.314 µM.
For the compound `Cc1cc(-c2cccc(Cl)c2)cc(N2CC(C(=O)O)C2)c1` [Example 27, 1-[3-[3-chlorophenyl]-5-methylpehnyl]azetidine-3-carboxylic acid], the Emax in assay [1] is 119%; in assay [2] it was 114%. The EC50 in assay [1] was 0.165 µM; in assay [2], 0.232 µM.
Take `Cn1cc(-c2cc(N3CC(C(=O)O)C3)cc(C(F)(F)F)c2)c2ccc(C(F)(F)F)cc21` [Example 28, 1-[3-[1-methyl-6-(trifluoromethyl)indol-3-yl]-5-(trifluoromethyl)phenyl]azetidine-3-carboxylic acid]: the results for the Emax in assay [1] and in assay [2] were 76% and 58%, respectively. The EC50 in assay [1] is 0.045 µM; in assay [2] it was 0.07 µM.
As to `Cn1cc(-c2cc(Cl)cc(N3CC(C(=O)O)C3)c2)c2ccc(C(F)(F)F)cc21` [Example 29], the Emax in assay [1] is 78%; in assay [2], 85%.
`Cn1cc(-c2cccc(N3CC(C(=O)O)C3)c2)c2ccc(C(F)(F)F)cc21` [Example 30, 1-[3-[1-methyl-6-(trifluoromethyl)indol-3-yl]phenyl]azetidine-3-carboxylic acid]: the Emax in assay [1] amounted to 102%; in assay [2], 97%. Further, the EC50 in assay [1] stood at 0.014 µM; in assay [2], 0.042 µM.
In the case of `CC(C)(C)c1cccc(-c2cccc(N3CC(C(=O)O)C3)c2)n1` [Example 31, 2-tert-butyl-6-[3-(3-carboxyazetidine-1-yl)phenyl]pyridiuium chlrodie], in assay [1], the Emax was 62% and the EC50 turned out to be 0.153 µM. Also, in assay [2], the Emax was found to be 59% and the EC50 turned out to be 0.401 µM.
With `O=C(O)C1CN(c2cccc(-c3ccnc(C(F)(F)F)c3)c2)C1` [Example 32, 1-[3-[2-(trifluoromethyl)-4-pyridyl]phenyl]azetidine-3-carboxylic acid], the Emax in assay [1] is 71%; in assay [2], 62%. For the same compound, the EC50 in assay [1] and in assay [2] was more than 5 µM in each case.
`Cc1nc(-c2ccccc2)oc1-c1cccc(N2CC(C(=O)O)C2)c1` [Example 33, 1-[3-(4-methyl-2-phenyl-oxazol-5-yl)phenyl]azetidine-3-carboxylic acid]: the results for the Emax in assay [1] and in assay [2] were 119% and 71%, respectively. Also, the EC50 in assay [1] and in assay [2] was more than 5 µM throughout.
Turning to `O=C(O)C1CN(c2cccc(-c3cncc(C(F)(F)F)c3)c2)C1` [Example 34, 1-[3-[5-(trifluoromethyl)3-pyridyl]phenyl]azetidine-3-carboxylic acid], in assay [1], the Emax was determined as 69% and the half-maximal effective concentration (EC50) was more than 5 µM. Also, in assay [2], the Emax turned out to be 64% and the EC50 was more than 5 µM.
With `Cc1nc(C(F)(F)F)nc(-c2cccc(N3CC(C(=O)O)C3)c2)c1C` [Example 35, 1-[3-[5,6-dimethyl-2-(trifloruomethyl)pyrrimidin-4-yl]phenyl]azetidine-3-carboxylic acid], in assay [1], the Emax was 45% and the EC50 was more than 5 µM. In assay [2], the Emax is 44% and the EC50 was more than 5 µM.
As to `O=C(O)C1CN(c2cccc(-c3ncc(Cl)c4ccccc34)c2)C1` [Example 36, 1-[3-(4-chloro-1-isoquinolyl)phenyl]azetidine-3-carboxylic acid], the Emax in assay [1] was 140%; in assay [2], 121%. Also, the EC50 in assay [1] is 0.449 µM; in assay [2] it was 1 µM.
Turning to `O=C(O)C1CN(c2cccc(-c3cc4ccccc4c(Cl)n3)c2)C1` [Example 37, 1-[3-(1-chloro-3-isoquinoyl)phenyl]azetidine-3-carboxylic acid], in assay [1], the Emax is 62% and the EC50 was more than 5 µM. In addition, in assay [2], the Emax is 99% and the EC50 was determined as 3.82 µM.
On the same counts, the results for `O=C(O)C1CN(c2cccc(-c3cccc(C(F)(F)F)n3)c2)C1` [Example 38, 1-[3-[6-(trifluoromethyl)-2-pyridyl]phenyl]azetidine-3-carboxylic acid] are 75%, more than 5 µM, 33% and more than 5 µM.
Regarding `Cc1cc(-c2cccc(N3CC(C(=O)O)C3)c2)nc(-c2ccccc2)n1` [Example 39, 1-[3-(6-methyl-2-phenylpyrimidin-4-yl)phenyl]azetidine-3-carboxylic acid], in assay [1], the Emax was 104% and the EC50 is 0.208 µM. Besides, in assay [2], the Emax turned out to be 110% and the EC50 turned out to be 0.472 µM.
As to `O=C(O)C1CN(c2cccc(-c3cccc(-c4ccccc4)n3)c2)C1` [Example 40, 1-[3-(6-phenyl-2-pyridyl)phenyl]azetidine-3-carboxylic acid], in assay [1], the Emax is 80% and the EC50 is 0.557 µM. Also, in assay [2], the Emax was found to be 62% and the EC50 was found to be 0.88 µM.
In the case of `Cc1cn(-c2cccc(N3CC(C(=O)O)C3)c2)c2ccc(C(F)(F)F)cc12` [Example 41, 1-[3-[3-methyl-5-(trifluoromethyl)indol-1-yl]phenyl]azetidine-3-carboxylic acid], the figures for the Emax in assay [1] and in assay [2] were 134% and 123%, respectively. Further, the EC50 in assay [1] stood at 0.0005 µM; in assay [2], 0.0007 µM.
For the compound `Cc1cn(-c2cc(Cl)cc(N3CC(C(=O)O)C3)c2)c2ccc(C(F)(F)F)cc12` [Example 42, 1-[3-chloroe-5-[3-methyl-5-(trifluoromethyl)indol-1-yl]phenyl]azetidine-3-carboxylic acid], in assay [1], the Emax came to 81% and the EC50 stood at 0.005 µM. In addition, in assay [2], the Emax was 67% and the EC50 is more than 5 µM.
For `Cc1cn(-c2cc(N3CC(C(=O)O)C3)cc(C(F)(F)F)c2)c2ccc(C(F)(F)F)cc12` [Example 43, 1-[3-[3-methyl-5-(trifluoromethyl)indol-1-yl]-5-(trifluoromethyl)phenyl]azetidine-3-carboxylic acid] the same measures were 84%, 0.006 µM, 90% and 0.009 µM.
For `O=C(O)C1CN(c2cccc(-n3ccc4cc(C(F)(F)F)ccc43)c2)C1` [Example 44, 1-[3-[5-(trifluoromethyl)indol-1-yl]phenyl]azetidine-3-carboxylic acid] the same measures were 108%, 0.007 µM, 108% and 0.008 µM.
Turning to `Cc1cc(N2CC(C(=O)O)C2)cc(-n2cc(C)c3cc(Cl)ccc32)c1` [Example 45], the Emax in assay [1] came out at 96%; in assay [2], 107%. The EC50 in assay [1] was found to be 0.002 µM; in assay [2], 0.003 µM.
For the compound `Cc1cn(-c2cccc(N3CC(C(=O)O)C3)c2)c2ccc(C3CC3)cc12` [Example 46], in assay [1], the Emax was determined as 104% and the EC50 was found to be 0.019 µM. Besides, in assay [2], the Emax was 130% and the EC50 worked out at 0.031 µM.
On to `COc1ccc2c(ccn2-c2cc(C)cc(N3CC(C(=O)O)C3)c2)c1` [Example 47, 1-[3-(5-methoxyindol-1-yl)-5-methylphenyl]azetidine-3-carboxylic acid], for which, in assay [1], the Emax worked out at 91% and the EC50 came out at 0.368 µM. Besides, in assay [2], the Emax came to 95% and the EC50 stood at 0.542 µM.
For `COc1ccc2c(c1)c(C)cn2-c1cc(C)cc(N2CC(C(=O)O)C2)c1` [Example 48, 1-[3-(5-methoxy-3-methylindol-1-yl)-5-methylphenyl]azetidine-3-carboxylic acid] the same measures were 96%, 0.037 µM, 129% and 0.123 µM.
